Patent US11045519B2, “Arginine-rich polypeptide compositions and methods of using same” (UNM Rainforest Innovations, priority 2017, dated 2021)

Columns and labels:
HPV16 PsVs [1] = experiment: Mouse cervicovaginal HPV16 PsV infection model (luciferase in vivo imaging); design: species or system BALB/c mice; details: 2 μM in 3% CMC, intravaginal, cytobrush abrasion, imaging 48 h after PsV, n=3
Text: FIG. 11. PolyR inhibits HPV16 infectivity in vivo. (A). Six-week-old to eight-week-old female BALB/c mice were exposed to HPV16 PsVs transducing Luciferase (5×10^8 infection units (IU)/animal). (B). Percent of in vivo infectivity represents % of infection calculated from luciferase readouts from panel A. Error bars represents SD n=3. Luciferase raw data (average radiance photons/s/cm^2) of polyR-untreated mice is considered as 100%.
Until recently, in vivo animal studies on infectivity of HPV were problematic, because productive papillomavirus infection is species-restricted and tissue-restricted, and traditional models use animal papillomaviruses in closely related or native host species. However, a recently developed mouse model of cervicovaginal infection using HPV16 PsVs has overcome such restrictions (Roberts et al., 2007. Nature Medicine 13:857-861). In the original study, 3% carboxymethylcellulose (CMC) was used to mimic the viscosity of a typical vaginal gel and determined that disruption of genital epithelium by chemical (Nonoxynol-9) or mechanical (using cytobrush) injury is crucial for efficient HPV PsV infection. Nonoxynol-9 (N-9) is a highly toxic strong non-ionic detergent that disturbs the normal architecture of animal and human genital epithelium. […] The average radiance per mouse was measured in photons/s/cm^2/sr for a set region (of equal dimensions) among mice.

authentic HPV16 virions = experiment: Authentic HPV16 virion infection of HaCaT cells, RT-qPCR of spliced E1^E4 mRNA; assay type: cell-based; details: 0.5 μM, 100 vge/cell, three days post-infection
Method: FIG. 10. PolyR inhibits activity of authentic HPV16 virions. HaCaT cells were infected with authentic HPV16 virions (100 vge/cell) in the presence or absence of 500 nM polyR. At three days post-infection, total RNA was extracted from cells using TRIzol reagent (Invitrogen, Thermo Fisher Scientific, Inc., Carlsbad, Calif.). Equal amount of the RNA of polyR-treated and untreated cells was subjected to reverse transcription. Each RT reaction was divided into three qPCR amplifications of 45 cycles targeting the spliced transcripts of cellular β-actin or HPV16 cDNAs. Primers E7.4A and E4B target an amplimer derived from spliced E1^E4 RNA, as previously described (Patterson et al., 2005. J Virol 79:6838-6847).
To validate the effect of polyR was not simply related to pseudovirus infections, HaCaT cells were infected with authentic HPV16 virions carrying viral genomes (100 vge/cell) in the presence or absence of 0.5 μM polyR. At three days post-infection, the cells were harvested and total RNA was extracted using TRIzol reagent (Invitrogen, Thermo Fisher Scientific, Inc., Carlsbad, Calif.). Nucleic acid concentrations were determined by optical density measurements. […] Quantification of cDNA derived from the spliced viral E1^E4 mRNA via qPCR was analyzed in triplicate samples from multiple separate experimental infections.

HPV16 PsVs [2] = experiment: HPV16 PsV infection of CHO mutant cells; assay type: cell-based; details: 3 μM, 1 h pre-treatment, 24 h
Method: FIG. 7. HPV binding and infection of CHO mutant cells in the presence of polyR. CHO mutant pgsA-745 cells (GAG deficient) and CHO mutant pgsD-677 cells (HS deficient) were grown in Ham's F12 medium supplemented with 10% fetal bovine serum and 1% Glutamax (Invitrogen, Thermo Fisher Scientific, Inc., Carlsbad, Calif.). (A) Cells were incubated with 3 μM polyR in the medium for 30 minutes before adding HPV16 PsVs and incubating at 4° C. for one hour. After extensive washing with PBS, cells were lysed and analyzed for the content of L1, as described in FIG. 4A. (B) Semi-confluent CHO-pgsA were treated with 3 μM polyR for one hour prior to adding HPV16 PsVs. Infection was scored at 24 hours post infection as described in FIG. 1. (C) Semi-confluent CHO-pgsD cells were treated with 3 μM polyR for one hour prior to adding HPV16 PsVs. Infection was scored at 24 hours post infection as described in FIG. 1.
To test the effects of polyR on cells that differentially express heparan sulfate versus heparan sulfonated proteoglycans, like glycosaminoglycans (GAGs), genetically mutant clones of Chinese hamster ovary (CHO) cell lines were used. […] First, the effect of polyR on HPV16 PsV binding to these mutant cells was measured.

poly-L-arginine [polyR]
reduction of infection in vivo (HPV16 PsVs [1]): 50% | inhibition of HPV16 infection (RT-qPCR) (authentic HPV16 virions): ~90% | reduction of HPV16 infection (HPV16 PsVs [2]; CHO pgsA-745 cells): 63% | reduction of HPV16 infection (HPV16 PsVs [2]; CHO pgsD-677 cells): 92%
